Where two headings read alike, the source gives them in different places.
How the values were obtained:
[1] = test system: sulfite reductase from Escherichia coli; test: Effects of metal ions, inhibitors and reducing agents on enzyme activity; type: biochemical
Method: (§1) […]. To 0.9 mL reaction mixture [0.1 M phosphate buffer (pH 7.7) containing 0.5 mM EDTA, 0.5 mM NaHSO3, 1 μM FMN, and 0.2 mM NADPH], 0.1 mL of reductase was added and incubated at 25° C. The activity was determined according to the initial velocity after the addition of reductase and corrected by the slow oxidation of NADPH in the absence of sulfite. One activity unit was defined as the amount of enzyme which catalyzed the oxidation of 1 μmol NADPH within 1 minute reaction 25° C. under the above condition.

[2] = target: T1, sulfite reductase from Saccharomyces cerevisiae (Saccharomyces cerevisiae, UniProt P39692+P47169); test: as above; type: biochemical; settings: for effect of metal ions on catalytic activity: metals 0.5, 1.0, 5.0 and 10.0 mM
T1 construct: Saccharomyces cerevisiae cell was collected by 30 min centrifugation at 4,000×g; made in house; host or cells: endogenous enzyme purified from cultured Saccharomyces cerevisiae cells (not recombinant)
T1 sequence (P47169 1-1442): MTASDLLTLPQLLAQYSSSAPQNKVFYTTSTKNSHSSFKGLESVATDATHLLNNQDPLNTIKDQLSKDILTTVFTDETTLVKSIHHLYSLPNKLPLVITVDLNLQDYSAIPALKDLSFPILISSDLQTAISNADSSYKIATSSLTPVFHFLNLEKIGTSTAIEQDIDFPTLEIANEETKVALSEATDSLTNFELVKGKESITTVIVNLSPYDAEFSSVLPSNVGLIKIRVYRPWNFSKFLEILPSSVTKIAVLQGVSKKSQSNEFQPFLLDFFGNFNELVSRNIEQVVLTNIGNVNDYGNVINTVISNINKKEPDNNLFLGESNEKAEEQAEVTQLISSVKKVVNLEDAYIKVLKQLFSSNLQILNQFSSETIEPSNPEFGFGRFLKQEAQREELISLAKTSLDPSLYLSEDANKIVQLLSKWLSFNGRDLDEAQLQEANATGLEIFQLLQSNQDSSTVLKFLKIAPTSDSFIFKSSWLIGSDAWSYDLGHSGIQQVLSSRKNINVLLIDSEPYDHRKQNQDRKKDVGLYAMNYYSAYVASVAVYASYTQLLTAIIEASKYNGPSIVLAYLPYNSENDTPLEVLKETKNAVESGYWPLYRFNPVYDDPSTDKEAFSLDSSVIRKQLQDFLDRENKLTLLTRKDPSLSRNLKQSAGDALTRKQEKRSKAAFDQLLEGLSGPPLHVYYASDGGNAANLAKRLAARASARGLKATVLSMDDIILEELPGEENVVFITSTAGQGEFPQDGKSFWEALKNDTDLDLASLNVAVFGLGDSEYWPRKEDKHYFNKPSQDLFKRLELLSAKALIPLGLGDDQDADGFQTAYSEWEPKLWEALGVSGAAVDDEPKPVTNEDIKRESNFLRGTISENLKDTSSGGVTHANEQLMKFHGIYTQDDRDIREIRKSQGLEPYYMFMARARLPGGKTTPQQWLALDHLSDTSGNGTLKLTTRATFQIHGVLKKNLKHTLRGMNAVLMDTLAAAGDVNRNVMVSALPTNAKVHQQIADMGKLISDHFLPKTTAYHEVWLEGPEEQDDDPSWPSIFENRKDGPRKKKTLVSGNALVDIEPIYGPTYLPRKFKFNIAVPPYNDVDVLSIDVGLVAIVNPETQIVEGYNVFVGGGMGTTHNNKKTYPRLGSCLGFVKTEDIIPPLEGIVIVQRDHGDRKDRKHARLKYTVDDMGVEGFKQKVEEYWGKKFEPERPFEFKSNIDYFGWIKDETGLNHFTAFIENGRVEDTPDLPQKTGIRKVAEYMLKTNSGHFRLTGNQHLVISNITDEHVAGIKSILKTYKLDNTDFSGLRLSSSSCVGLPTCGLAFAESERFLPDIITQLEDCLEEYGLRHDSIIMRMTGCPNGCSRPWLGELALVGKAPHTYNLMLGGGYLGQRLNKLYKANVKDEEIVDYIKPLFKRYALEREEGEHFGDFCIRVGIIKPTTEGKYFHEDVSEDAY
T1 sequence (P39692 1-1035): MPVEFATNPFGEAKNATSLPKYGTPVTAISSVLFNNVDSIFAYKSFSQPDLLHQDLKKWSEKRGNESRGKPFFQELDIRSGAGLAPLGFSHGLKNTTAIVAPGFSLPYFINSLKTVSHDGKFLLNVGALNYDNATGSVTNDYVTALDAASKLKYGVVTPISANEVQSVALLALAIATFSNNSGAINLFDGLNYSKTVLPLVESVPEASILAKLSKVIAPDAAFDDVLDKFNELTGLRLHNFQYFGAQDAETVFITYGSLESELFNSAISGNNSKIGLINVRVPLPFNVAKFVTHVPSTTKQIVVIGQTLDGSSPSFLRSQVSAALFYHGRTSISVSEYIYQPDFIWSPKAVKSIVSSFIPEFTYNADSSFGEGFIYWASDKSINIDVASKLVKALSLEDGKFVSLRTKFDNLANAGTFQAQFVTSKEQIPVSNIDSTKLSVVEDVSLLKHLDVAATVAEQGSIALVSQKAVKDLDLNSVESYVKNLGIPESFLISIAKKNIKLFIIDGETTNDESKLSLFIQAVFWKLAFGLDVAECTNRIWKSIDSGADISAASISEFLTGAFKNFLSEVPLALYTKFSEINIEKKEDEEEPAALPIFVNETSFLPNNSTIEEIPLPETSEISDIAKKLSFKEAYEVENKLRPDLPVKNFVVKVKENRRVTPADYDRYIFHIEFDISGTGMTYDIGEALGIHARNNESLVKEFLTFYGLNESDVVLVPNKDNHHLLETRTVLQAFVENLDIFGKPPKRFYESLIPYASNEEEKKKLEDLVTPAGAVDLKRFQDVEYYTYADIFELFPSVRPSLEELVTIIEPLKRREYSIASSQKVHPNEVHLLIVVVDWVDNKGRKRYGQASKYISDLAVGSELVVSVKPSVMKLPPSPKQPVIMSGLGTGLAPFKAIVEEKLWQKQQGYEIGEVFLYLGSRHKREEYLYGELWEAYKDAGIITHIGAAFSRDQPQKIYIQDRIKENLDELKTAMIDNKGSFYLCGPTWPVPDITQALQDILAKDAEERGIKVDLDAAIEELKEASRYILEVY
Method: as §1

[3] = Determination of sulfite reductase activity (oxidation of NADPH by sulfite, 340 nm); type: biochemical
Method: The sulfite reductase activity was measured spectrophotometrically at 340 nm under aerobic conditions by following the oxidation of NADPH by sulfite according to the method of determining enzyme activity of Siegel and others (1973). To 0.9 mL reaction mixture [0.1 M phosphate buffer (pH 7.7) containing 0.5 mM EDTA, 0.5 mM NaHSO3, 1 μM FMN, and 0.2 mM NADPH], 0.1 mL of reductase was added and incubated at 25° C. The activity was determined according to the initial velocity after the addition of reductase and corrected by the slow oxidation of NADPH in the absence of sulfite. One activity unit was defined as the amount of enzyme which catalyzed the oxidation of 1 μmol NADPH within 1 minute reaction 25° C. under the above condition.

[4] = Optimal pH value of the sulfite reductase; type: biochemical; settings: 25° C., 5 minutes
Method: Optimal pH value. To 0.9 mL reaction mixture with various pHs (0.2 M citrated buffer: pH 4.0 to 6.0; 0.2 M phosphate buffer: pH 6.0 to 8.0 and 0.2 M bicarbonate buffer: pH 8.0 to 10,0; all buffers containing 0.5 mM EDTA, 0.5 mM NaHSO3, 1 μM FMN, and 0.2 mM NADPH), 0.1 mL of reductase was added and incubated at 25° C. for 5 minutes. The activity was determined from initial velocity and corrected by the oxidation of NADPH in the absence of sulfite according the method of Siegel and others (1973).

[5] = Optimal temperature of the sulfite reductase; type: biochemical; settings: pH 7.7, 5 minutes
Method: Optimal temperature. To 0.9 mL reaction mixture [0.1 M phosphate buffer (pH 7.7) containing 0.5 mM EDTA, 0.5 mM NaHSO3, 1 μM FMN, and 0.2 mM NADPH], 0.1 mL of reductase was added and incubated at various temperatures (5, 10, 15, 20, 25, 30, 35, 40, 45, 50, 55 and 60° C.) for 5 minutes. The activity was determined from initial velocity and corrected by the oxidation of NADPH in the absence of sulfite according the method of Siegel and others (1973).

[6] = Stability of low temperature storage of the enzyme solution; type: physicochemical
Method: The enzyme solution was stored at 4° C. and −20° C., respectively. The residue enzyme activity was determined per constant time interval to test the stability of low-temperature storage.

[7] = metals 0.5, 1.0, 5.0 and 10.0 mM, 25° C., 30 minutes
[8] = inhibitor 1.0 mM, 25° C., 30 minutes

Compound | effect of metal ions on catalytic activity [1, 7] | effect of metal ions on catalytic activity ([2]; 25° C., 30 minutes) | further results
[Hg+2] [Hg^2+] | strongly inhibited | strongly inhibited | –
N[C@@H](CS)C(=O)O [cysteine] | – | – | effect of reducing agents on enzyme activity [1]: improved the activity; effect of reducing agents on enzyme activity [2]: improved the activity
[Zn+2] [Zn^2+] | moderately | strongly inhibited | –
[Mn+2] [Mn^2+] | moderately | partially | –
[Mg+2] [Mg^2+] | did not affect the enzyme activity | did not affect the enzyme activity | –
[K+] [K^+] | – | did not affect the enzyme activity | effect of metal ions on catalytic activity [1]: did not affect the enzyme activity
[Ca+2] [Ca^2+] | strongly inhibited | did not affect the enzyme activity | –
OCCS [β-mercaptoethanol] | – | – | effect of reducing agents on enzyme activity [1]: improved the activity; effect of reducing agents on enzyme activity [2]: improved the activity
O=S(=O)(F)Cc1ccccc1 [PMSF, phenylmethylsulfonyl fluoride] | – | – | effect of inhibitors on catalytic activity [1, 8]: partially; effect of inhibitors on catalytic activity [2, 8]: partially
[Ba+2] [Ba^2+] | moderately | partially | –
O=S(=O)(O)c1cc[c]([Hg][Cl])cc1 [PCMPS, p-chloromercuriphenylsulfonic acid] | – | – | effect of inhibitors on catalytic activity [2, 8]: completely inhibited
[Pb+2] [Pb^2+] | – | strongly inhibited | –
[Cd+2] [Cd^2+] | moderately | – | –
[Cu+2] [Cu^2+] | strongly inhibited | strongly inhibited | –
CCN1C(=O)C=CC1=O [NEM, N-ethylmaleimide] | – | – | effect of inhibitors on catalytic activity [1, 8]: partially; effect of inhibitors on catalytic activity [2, 8]: partially
[Co+2] [Co^2+] | strongly inhibited | partially | –
N[C@@H](CCC(=O)N[C@@H](CS)C(=O)NCC(=O)O)C(=O)O [glutathione] | – | – | effect of reducing agents on enzyme activity [1]: improved the activity; effect of reducing agents on enzyme activity [2]: improved the activity
O=C(O)CI [IAA, Iodoacetate] | – | – | effect of inhibitors on catalytic activity [1]: partially; effect of inhibitors on catalytic activity [2]: partially
[Ni+2] [Ni^2+] | – | partially | –
O[C@H](CS)[C@H](O)CS (racemic) [dithiothreitol] | – | – | effect of reducing agents on enzyme activity [1]: improved the activity; effect of reducing agents on enzyme activity [2]: improved the activity
[Na+] [Na^+] | did not affect the enzyme activity | did not affect the enzyme activity | –
[Fe+2] [Fe^2+] | strongly inhibited | partially | –
O=C(O)c1cc[c]([Hg][Cl])cc1 [PCMB, p-chloromercuribenzoate] | – | – | effect of inhibitors on catalytic activity [1, 8]: completely inhibited; effect of inhibitors on catalytic activity [2, 8]: completely inhibited
sulfite reductase from Saccharomyces cerevisiae: purified sulfite reductase from Saccharomyces cerevisiae (CCRC 22223), molecular weight 358,000 | – | – | specific activity ([3]; Table 2, purification steps of the Saccharomyces cerevisiae enzyme): 1.34 units/mg; specific activity ([3]; purified enzyme, 25° C., pH 7.7): 1.34 units/mg; optimum pH [4]: 7.3; optimum temperature [5]: 25 °C; enzyme activity after storage ([6]; enzyme solution stored for 2 months at −20° C.): nearly not changed; enzyme activity after storage ([6]; enzyme solution stored for 28 days at 4° C.): 77.8%

Source: patent US7183091B2, “Sulfite reductase, the process for producing the same and the use thereof” (Nugen Bioscience (Taiwan) Co., Ltd., priority 2003, dated 2007)
